Calls of active or inactive are those of the source. The rule behind the calls is not given here.
How the values were obtained:
PC-3 [1] = assay: Cytotoxicity against human PC3 cells assessed as growth inhibition at 10 uM after 24 to 48 hrs by MTT assay relative to control; assay type: functional; details: read-out: GI
[2] = Cell cycle arrest in human MIAPaCa2 cells assessed as accumulation at G1 phase at 10 uM after 24 hrs by propidium iodide staining-based flow cytometric analysis (reference value: 51%); assay type: functional; details: MIA PaCa-2
HCT-116 [3] = assay: Cytotoxicity against human HCT116 cells assessed as growth inhibition at 10 uM after 24 to 48 hrs by MTT assay relative to control; assay type: functional; details: read-out: GI
[4] = Cell cycle arrest in human MIAPaCa2 cells assessed as accumulation at S phase at 30 uM after 24 hrs by propidium iodide staining-based flow cytometric analysis (reference value: […]%); assay type: functional; details: MIA PaCa-2
HL-60 [5] = assay: Cytotoxicity against human HL60 cells assessed as growth inhibition at 10 uM after 24 to 48 hrs by MTT assay relative to control; assay type: functional; details: read-out: GI
HepG2 [6] = assay: Cytotoxicity against human HepG2 cells assessed as growth inhibition at 100 uM after 24 to 48 hrs by MTT assay relative to control; assay type: functional; details: read-out: GI
[7] = Cell cycle arrest in human MIAPaCa2 cells assessed as apoptotic cells at 30 uM after 24 hrs by propidium iodide staining-based flow cytometric analysis (reference value: 0.1%); assay type: functional; details: MIA PaCa-2
[8] = Cell cycle arrest in human MIAPaCa2 cells assessed as apoptotic cells at 10 uM after 24 hrs by propidium iodide staining-based flow cytometric analysis (reference value: 0.1%); assay type: functional; details: MIA PaCa-2
HepG2 [9] = assay: cells; details: Homo sapiens, HepG2, 48 h
Description: Cytotoxicity against human HepG2 cells assessed as inhibition of cell proliferation after 48 hrs by MTT assay

[10] = Cytotoxicity against human MIAPaCa2 cells assessed as growth inhibition at 100 uM after 24 to 48 hrs by MTT assay relative to control; assay type: functional; details: MIA PaCa-2, read-out: GI
[11] = Cell cycle arrest in human MIAPaCa2 cells assessed as accumulation at S phase at 10 uM after 24 hrs by propidium iodide staining-based flow cytometric analysis (reference value: […]%); assay type: functional; details: MIA PaCa-2
MIA PaCa-2 [12] = assay: Effect on P110alpha expression in human MIAPaCa2 cells at 5 to 10 uM measured after 2 to 4 hrs by Western blot analysis; assay type: functional, cell-based
MIA PaCa-2 [13] = assay: Effect on mTORC2 complex in human MIAPaCa2 cells assessed as p-Akt phosphorylation at S473 at 5 to 10 uM measured at 2 hrs by Western blot analysis; assay type: cell-based
[14] = Disruption of mitochondrial membrane potential in human MIAPaCa2 cells at 10 uM after 24 hrs by Rh123 dye-based flow cytometric analysis (reference value: 6%); assay type: functional, MIA PaCa-2
cells = details: Homo sapiens, MIA PaCa-2, 48 h
Description: Cytotoxicity against human MIAPaCa2 cells assessed as inhibition of cell proliferation after 48 hrs by MTT assay

[15] = Cytotoxicity against human MIAPaCa2 cells assessed as growth inhibition at 10 uM after 24 to 48 hrs by MTT assay relative to control; assay type: functional; details: MIA PaCa-2, read-out: GI
[16] = Cell cycle arrest in human MIAPaCa2 cells assessed as accumulation at G1 phase at 30 uM after 24 hrs by propidium iodide staining-based flow cytometric analysis (reference value: 51%); assay type: functional; details: MIA PaCa-2
HepG2 [17] = assay: Cytotoxicity against human HepG2 cells assessed as growth inhibition at 30 uM after 24 to 48 hrs by MTT assay relative to control; assay type: functional; details: read-out: GI
HepG2 [18] = assay: Cytotoxicity against human HepG2 cells assessed as growth inhibition at 10 uM after 24 to 48 hrs by MTT assay relative to control; assay type: functional; details: read-out: GI
PC-3 [19] = assay: Cytotoxicity against human PC3 cells assessed as growth inhibition at 100 uM after 24 to 48 hrs by MTT assay relative to control; assay type: functional; details: read-out: GI
[20] = Cell cycle arrest in human MIAPaCa2 cells after 24 hrs by propidium iodide staining-based flow cytometric analysis; assay type: functional; details: MIA PaCa-2
[21] = Cell cycle arrest in human MIAPaCa2 cells assessed as accumulation at G2 phase at 30 uM after 24 hrs by propidium iodide staining-based flow cytometric analysis (reference value: 5%); assay type: functional; details: MIA PaCa-2
[22] = Cell cycle arrest in human MIAPaCa2 cells assessed as accumulation at G2 phase at 20 uM after 24 hrs by propidium iodide staining-based flow cytometric analysis (reference value: 5%); assay type: functional; details: MIA PaCa-2
HCT-116 [23] = assay: cells; details: Homo sapiens, HCT-116, 48 h
Description: Cytotoxicity against human HCT116 cells assessed as inhibition of cell proliferation after 48 hrs by MTT assay

[24] = Cell cycle arrest in human MIAPaCa2 cells assessed as apoptotic cells at 20 uM after 24 hrs by propidium iodide staining-based flow cytometric analysis (reference value: 0.1%); assay type: functional; details: MIA PaCa-2
HL-60 [25] = assay: Cytotoxicity against human HL60 cells assessed as growth inhibition at 30 uM after 24 to 48 hrs by MTT assay relative to control; assay type: functional; details: read-out: GI
[26] = Cell cycle arrest in human MIAPaCa2 cells assessed as accumulation at G2 phase at 10 uM after 24 hrs by propidium iodide staining-based flow cytometric analysis (reference value: 5%); assay type: functional; details: MIA PaCa-2
HL-60 [27] = assay: Cytotoxicity against human HL60 cells assessed as growth inhibition at 100 uM after 24 to 48 hrs by MTT assay relative to control; assay type: functional; details: read-out: GI
[28] = Cell cycle arrest in human MIAPaCa2 cells assessed as accumulation at S phase at 20 uM after 24 hrs by propidium iodide staining-based flow cytometric analysis (reference value: […]%); assay type: functional; details: MIA PaCa-2
HL-60 [29] = assay: cells; details: Homo sapiens, HL-60, 48 h
Description: Cytotoxicity against human HL60 cells assessed as inhibition of cell proliferation after 48 hrs by MTT assay

[30] = Cell cycle arrest in human MIAPaCa2 cells assessed as accumulation at G1 phase at 20 uM after 24 hrs by propidium iodide staining-based flow cytometric analysis (reference value: 51%); assay type: functional; details: MIA PaCa-2
[31] = Cytotoxicity against human MIAPaCa2 cells assessed as growth inhibition at 30 uM after 24 to 48 hrs by MTT assay relative to control; assay type: functional; details: MIA PaCa-2, read-out: GI
HCT-116 [32] = assay: Cytotoxicity against human HCT116 cells assessed as growth inhibition at 30 uM after 24 to 48 hrs by MTT assay relative to control; assay type: functional; details: read-out: GI
HCT-116 [33] = assay: Cytotoxicity against human HCT116 cells assessed as growth inhibition at 100 uM after 24 to 48 hrs by MTT assay relative to control; assay type: functional; details: read-out: GI
[34] = Disruption of mitochondrial membrane potential in human MIAPaCa2 cells at 30 uM after 24 hrs by Rh123 dye-based flow cytometric analysis (reference value: 6%); assay type: functional, MIA PaCa-2
PC-3 [35] = assay: cells; details: Homo sapiens, PC-3, 48 h
Description: Cytotoxicity against human PC3 cells assessed as inhibition of cell proliferation after 48 hrs by MTT assay

PC-3 [36] = assay: Cytotoxicity against human PC3 cells assessed as growth inhibition at 30 uM after 24 to 48 hrs by MTT assay relative to control; assay type: functional; details: read-out: GI
[37] = Disruption of mitochondrial membrane potential in human MIAPaCa2 cells at 20 uM after 24 hrs by Rh123 dye-based flow cytometric analysis (reference value: 6%); assay type: functional, MIA PaCa-2

`CC(=O)Nc1ccc(S(=O)(=O)N(c2ccccc2)c2ccnc3ccc(-c4ccc(O)cc4)cc23)cc1` gave an inhibition of growth at 10 µM (PC-3 [1]) of 12%, an Activity [2] of 59% and an inhibition of growth at 10 µM (HCT-116 [3]) of 19%. For the same molecule, the Activity [4] was 19%, the inhibition of growth at 10 µM (HL-60 [5]) was 25% and the inhibition of growth at 100 µM (HepG2 [6]) was 87%. The Activity [7] was 6%, the Activity [8] was 1% and the IC50 (HepG2 [9]) was 22 µM. The inhibition of growth at 100 µM [10] was 89%, the Activity [11] was 22% and the Activity (MIA PaCa-2 [12]) was “inactive”. For the same molecule, the Activity (MIA PaCa-2 [13]) was “inactive”, the Activity [14] was 13% and the IC50 (cells) was 7 µM. For the same molecule, the inhibition of growth at 10 µM [15] was 64%, the Activity [16] was 67% and the inhibition of growth at 30 µM (HepG2 [17]) was 83%. For the same molecule, the inhibition of growth at 10 µM (HepG2 [18]) was 5%, the inhibition of growth at 100 µM (PC-3 [19]) was 25% and the Activity [20] was “Dose-dependent effect”. The Activity [21] was 15%, the Activity [22] was 13% and the IC50 (HCT-116 [23]) was under 100 µM. For the same molecule, the Activity [24] was 1%, the inhibition of growth at 30 µM (HL-60 [25]) was 93% and the Activity [26] was 19%. It also gave an inhibition of growth at 100 µM (HL-60 [27]) of 94%, an Activity [28] of 21% and an IC50 (HL-60 [29]) of 16 µM. It also gave an Activity [30] of 66%, an inhibition of growth at 30 µM [31] of 89% and an inhibition of growth at 30 µM (HCT-116 [32]) of 25%. It also gave an inhibition of growth at 100 µM (HCT-116 [33]) of 29%, an Activity [34] of 42% and an IC50 (PC-3 [35]) of 75 µM. It also gave an inhibition of growth at 30 µM (PC-3 [36]) of 14% and an Activity [37] of 23%.
